Reference: US20100120747A1, “COMBINATION OF A CHOL[…] AND A COMPOUND WITH 5-HT6 RECEPTOR AFFINITY” (priority 2006, published 2010)
Where a name gives a salt, the structure may show the parent alone.

Tested on: adult male Lister hooded rats
Experiment: Novel object discrimination (NOD) test, 4 h inter-trial interval
Format: in vivo, rat
Details: FIG. 1; for effect in the NOD test: 4 h ITI, each amount given by itself or both amounts combined
Method: II) Behavioural Assessment of Cognitive Effects of Compounds with 5-HT6 Receptor Affinity: Novel Object Discrimination (NOD)
Two separate groups of 12 adult male Lister hooded rats are tested in the NOD paradigm using 4 h inter-trial interval (ITI) delay between the familiarisation and choice trials which should ensure impaired discrimination and permit the pro-cognitive effects of the compounds to be evaluated.
In two separate groups of animals compound [1140] (6-chloro-N-(3-(2-(dimethylamino)ethyl)-1H-indol-5-yl)imidazo[2,1-b]thiazole-5-sulfonamide) and donepezil HCl (or vehicle) were administered on four separate occasions, at seven day intervals. The semi-randomised design for drug administration ensures that for each group, each animal receives one of the four treatment combinations once during the study: compound [1140] and donepezil HCl, compound [1140] and vehicle, donepezil HCl and vehicle, vehicle and vehicle. […] Drug pre-treatment occurred 20 min prior to the first NOD trial to ensure optimal drug plasma levels during acquisition and consolidation phases.
To maximise the opportunity to see a synergistic effect, the animals received one dose of donepezil HCl i.p. (0.05 mg/kg for group 1 and 0.1 mg/kg for group 2) in combination with the selected dose of compound [1140] (1 mg/kg) or the vehicle (saline containing 0.5 methylcellulose, 2 ml/kg).
The exact experimental protocol is outlined in detail in:
M. V. King et al, 5-HT6 receptor antagonist reverse delay-dependent deficits in novel object discrimination by enhancing consolidation—an effect sensitive to NMDA receptor antagonism, Neuropharmacology 2004, 47, 195-204 and Woolley et al. Reversal of cholinergic-induced deficit in a rodent model of recognition memory by the selective 5-HT6 receptor antagonist, Ro 04-6790; Psychopharmacology 2003, 170, 358-367.
The behavioural assessment of cognitive effects of compounds with 5-HT6 receptor affinity with the novel object discrimination (NOD) test was carried out as described above.
The results are depicted in FIG. 1. […]

SMILES: CN(C)CCc1c[nH]c2ccc(NS(=O)(=O)c3c(Cl)nc4sccn34)cc12 [compound [1140], 6-chloro-N-(3-(2-(dimethylamino)ethyl)-1H-indol-5-yl)imidazo[2,1-b]thiazole-5-sulfonamide]
- effect in the NOD test: does not have any effect

SMILES: COc1cc2c(cc1OC)C(=O)C(CC1CCN(Cc3ccccc3)CC1)C2 (stereo not drawn) [donepezil hydrochloride]
- effect in the NOD test: does not have any effect
- potentiation of the action of compound [1140] in the NOD test (donepezil given with compound [1140]): potentiates the action
